From US7745495B2, “Pyridine ketones with herbicidal effect” (Syngenta Crop Protection, Inc., priority 2004, dated 2010)

How the values were obtained:
Xanthium = assay: Pre-emergent herbicidal activity; format: in vivo; conditions: Table B4, rating 10=total damage, 0=no action
Experimental: (§1) Monocotyledonous and dicotyledonous test plants are sown in standard soil in plastic pots. […] The test plants are then grown in a greenhouse under optimum conditions. After a test duration of 3 weeks, the test is evaluated in accordance with a scale of ten ratings (10=total damage, 0=no action). Ratings of from 10 to 7 (especially from 10 to 8) indicate good to very good herbicidal action.
In the following Table B4, the pre-emergent herbicidal activity of compound H-3 according to the invention is compared with compound D according to the prior art. Both compounds are structurally identical except for the length of the alkylene linker attached to the pyridine ring.

Digitaria [1] = assay: Post-emergence herbicidal action; format: in vivo; conditions: 250 g/ha; 4- to 6-leaf stage; after about 18 days; rating 10=total damage, 0=no action
Experimental: (§2) In a greenhouse, monocotyledonous and dicotyledonous test plants are grown in standard soil in plastic pots and at the 4- to 6-leaf stage are sprayed with an aqueous suspension of the test compounds of formula I prepared from a 25% wettable powder (Example F3, b) according to WO 97/34485) or with an emulsion of the test compounds of formula I prepared from a 25% emulsifiable concentrate (Example F1, c) according to WO 97/34485), in a concentration corresponding to 125 g or 250 g of active ingredient/ha (500 liter of water/ha). The test plants are then grown on in a greenhouse under optimum conditions. After a test duration of about 18 days, the test is evaluated in accordance with a scale of ten ratings (10=total damage, 0=no action). Ratings of from 10 to 7 (especially from 10 to 8) indicate good to very good herbicidal action.

Setaria = assay: Post-emergence herbicidal action; format: in vivo; conditions: 250 g/ha; 4- to 6-leaf stage; after about 18 days; rating 10=total damage, 0=no action
Experimental: as §2

Abutilon [2] = assay: Post-emergence herbicidal action; format: in vivo; conditions: 250 g/ha; 4- to 6-leaf stage; after about 18 days; rating 10=total damage, 0=no action
Experimental: as §2

Panicum [3] = assay: Post-emergence herbicidal action; format: in vivo; conditions: 250 g/ha; 4- to 6-leaf stage; after about 18 days; rating 10=total damage, 0=no action
Experimental: as §2

Sinapis = assay: Post-emergence herbicidal action; format: in vivo; conditions: 250 g/ha; 4- to 6-leaf stage; after about 18 days; rating 10=total damage, 0=no action
Experimental: as §2

Stellaria [4] = assay: Post-emergence herbicidal action; format: in vivo; conditions: 250 g/ha; 4- to 6-leaf stage; after about 18 days; rating 10=total damage, 0=no action
Experimental: as §2

Ipomea = assay: Post-emergence herbicidal action; format: in vivo; conditions: 250 g/ha; 4- to 6-leaf stage; after about 18 days; rating 10=total damage, 0=no action
Experimental: as §2

Chenopodium [5] = assay: Post-emergence herbicidal action; format: in vivo; conditions: 250 g/ha; 4- to 6-leaf stage; after about 18 days; rating 10=total damage, 0=no action
Experimental: as §2

Digitaria [6] = assay: Pre-emergence herbicidal action; format: in vivo; conditions: rating 10=total damage, 0=no action; for Pre-emergence herbicidal action: Digitaria: 250 g/ha, after 3 weeks
Experimental: as §1

Amaranthus = assay: Pre-emergence herbicidal action; format: in vivo; conditions: rating 10=total damage, 0=no action; for Pre-emergence herbicidal action: Amaranthus: 250 g/ha, after 3 weeks
Experimental: as §1

Abutilon [7] = assay: Pre-emergence herbicidal action; format: in vivo; conditions: rating 10=total damage, 0=no action; for Pre-emergence herbicidal action: Abutilon: 250 g/ha, after 3 weeks
Experimental: as §1

Panicum [8] = assay: Pre-emergence herbicidal action; format: in vivo; conditions: rating 10=total damage, 0=no action; for Pre-emergence herbicidal action: Panicum: 250 g/ha, after 3 weeks; for Pre-emergent Herbicidal Activity: Panicum: Table B4
Experimental: as §1

Echinochloa = assay: Pre-emergence herbicidal action; format: in vivo; conditions: rating 10=total damage, 0=no action; for Pre-emergence herbicidal action: Echinochloa: 250 g/ha, after 3 weeks
Experimental: as §1

Soya = assay: Pre-emergent herbicidal activity on crop plant; format: in vivo; conditions: crop plant, rating 10=total damage, 0=no action; for Pre-emergent Herbicidal Activity: Soya: Table B4; for Pre-emergent Herbicidal Activity: Soja: Table B5
Experimental: as §1
(§3) In the following Table B3, the pre-emergent herbicidal activity of compound H-14 according to the invention is compared with 4 compounds according to the prior art. All compounds are structurally identical except for the nature of the alkylene linker attached to the pyridine ring.

Corn = assay: Pre-emergent herbicidal activity on crop plant; format: in vivo; conditions: crop plant, rating 10=total damage, 0=no action; for Pre-emergent Herbicidal Activity: Corn: Table B4; for Pre-emergent Herbicidal Activity: Mais: Table B5
Experimental: as §1, §3

Stellaria [9] = assay: Pre-emergence herbicidal action; format: in vivo; conditions: 250 g/ha; after 3 weeks; rating 10=total damage, 0=no action
Experimental: (§4) Monocotyledonous and dicotyledonous test plants are sown in standard soil in plastic pots. Immediately after sowing, the test compounds, in the form of an aqueous suspension (prepared from a 25% wettable powder (Example F3, b) according to WO 97/34485) or in the form of an emulsion (prepared from a 25% emulsifiable concentrate (Example F1, c)), are applied by spraying a concentration corresponding to 125 g or 250 g of active ingredient/ha (500 liter of water/ha). The test plants are then grown in a greenhouse under optimum conditions. After a test duration of 3 weeks, the test is evaluated in accordance with a scale of ten ratings (10=total damage, 0=no action). Ratings of from 10 to 7 (especially from 10 to 8) indicate good to very good herbicidal action.

Chenopodium [10] = assay: Pre-emergence herbicidal action; format: in vivo; conditions: 250 g/ha; after 3 weeks; rating 10=total damage, 0=no action
Experimental: as §4

Brachiaria = assay: Pre-emergent herbicidal activity; format: in vivo; conditions: Table B5, rating 10=total damage, 0=no action
Experimental: as §1, §3

Scirpus = assay: Pre-emergent herbicidal activity; format: in vivo; conditions: Table B5, rating 10=total damage, 0=no action
Experimental: as §1
In the following Table B5, the pre-emergent herbicidal activity of compound H-9 according to the invention is compared with compound E according to the prior art. Both compounds are structurally identical except for the length of the alkylene linker attached to the pyridine ring.

COCCCc1nc(C(F)F)ccc1C(=O)C1C(=O)C2CCC(C2)C1=O (stereo not drawn) [Compound H-3, 3-[6-Difluoromethyl-2-(3-methoxy-propyl)-pyridine-3-carbonyl]-bicyclo[3.2.1]octane-2,4-dione]
8: Post-emergence herbicidal action: Ipomea (Ipomea) | Pre-emergence herbicidal action: Stellaria (Stellaria [9])
9: Post-emergence herbicidal action: Digitaria (Digitaria [1]) | Post-emergence herbicidal action: Setaria (Setaria) | Post-emergence herbicidal action: Abutilon (Abutilon [2]) | Post-emergence herbicidal action: Sinapis (Sinapis) | Post-emergence herbicidal action: Stellaria (Stellaria [4]) | Pre-emergent Herbicidal Activity: Digitaria (Digitaria [6]; Table B4, 30 g/ha) | Pre-emergent Herbicidal Activity: Digitaria (Digitaria [6]; Table B4, 60 g/ha) | Pre-emergent Herbicidal Activity: Amaranthus (Amaranthus; Table B4, 30 g/ha) | Pre-emergent Herbicidal Activity: Abutilon (Abutilon [7]; Table B4, 30 g/ha)
7: Pre-emergent Herbicidal Activity: Xanthium (Xanthium; 30 g/ha) | Pre-emergent Herbicidal Activity: Xanthium (Xanthium; 60 g/ha)
45 to 46 °C: melting point
0: Pre-emergent Herbicidal Activity: Soya (Soya; 30 g/ha) | Pre-emergent Herbicidal Activity: Soya (Soya; 60 g/ha) | Pre-emergent Herbicidal Activity: Corn (Corn; 30 g/ha) | Pre-emergent Herbicidal Activity: Corn (Corn; 60 g/ha)
10: Post-emergence herbicidal action: Panicum (Panicum [3]) | Post-emergence herbicidal action: Chenopodium (Chenopodium [5]) | Pre-emergence herbicidal action: Digitaria (Digitaria [6]) | Pre-emergence herbicidal action: Amaranthus (Amaranthus) | Pre-emergent Herbicidal Activity: Amaranthus (Amaranthus; Table B4, 60 g/ha) | Pre-emergence herbicidal action: Abutilon (Abutilon [7]) | Pre-emergent Herbicidal Activity: Abutilon (Abutilon [7]; Table B4, 60 g/ha) | Pre-emergence herbicidal action: Panicum (Panicum [8]) | Pre-emergent Herbicidal Activity: Panicum (Panicum [8]; 30 g/ha) | Pre-emergent Herbicidal Activity: Panicum (Panicum [8]; 60 g/ha) | Pre-emergence herbicidal action: Echinochloa (Echinochloa) | Pre-emergent Herbicidal Activity: Echinochloa (Echinochloa; Table B4, 30 g/ha) | Pre-emergent Herbicidal Activity: Echinochloa (Echinochloa; Table B4, 60 g/ha) | Pre-emergence herbicidal action: Chenopodium (Chenopodium [10])

COCCCc1nc(C(F)(F)Cl)ccc1C(=O)C1C(=O)C2CCC(C2)C1=O (stereo not drawn) [Compound H-9]
8: Post-emergence herbicidal action: Stellaria (Stellaria [4]) | Pre-emergent Herbicidal Activity: Digitaria (Digitaria [6]; Table B5, 30 g/ha) | Pre-emergent Herbicidal Activity: Amaranthus (Amaranthus; Table B5, 30 g/ha) | Pre-emergent Herbicidal Activity: Amaranthus (Amaranthus; Table B5, 60 g/ha) | Pre-emergent Herbicidal Activity: Abutilon (Abutilon [7]; Table B5, 30 g/ha)
1: Pre-emergent Herbicidal Activity: Soja (Soya; 60 g/ha) | Pre-emergent Herbicidal Activity: Mais (Corn; 60 g/ha)
10: Pre-emergence herbicidal action: Digitaria (Digitaria [6]) | Pre-emergence herbicidal action: Abutilon (Abutilon [7]) | Pre-emergence herbicidal action: Panicum (Panicum [8]) | Pre-emergence herbicidal action: Echinochloa (Echinochloa) | Pre-emergent Herbicidal Activity: Echinochloa (Echinochloa; Table B5, 60 g/ha) | Pre-emergent Herbicidal Activity: Scirpus (Scirpus; 30 g/ha) | Pre-emergent Herbicidal Activity: Scirpus (Scirpus; 60 g/ha)
7: Post-emergence herbicidal action: Sinapis (Sinapis) | Pre-emergence herbicidal action: Stellaria (Stellaria [9])
9: Post-emergence herbicidal action: Digitaria (Digitaria [1]) | Post-emergence herbicidal action: Setaria (Setaria) | Post-emergence herbicidal action: Abutilon (Abutilon [2]) | Post-emergence herbicidal action: Panicum (Panicum [3]) | Post-emergence herbicidal action: Ipomea (Ipomea) | Post-emergence herbicidal action: Chenopodium (Chenopodium [5]) | Pre-emergent Herbicidal Activity: Brachiaria (Brachiaria; 30 g/ha) | Pre-emergent Herbicidal Activity: Brachiaria (Brachiaria; 60 g/ha) | Pre-emergent Herbicidal Activity: Digitaria (Digitaria [6]; Table B5, 60 g/ha) | Pre-emergence herbicidal action: Amaranthus (Amaranthus) | Pre-emergent Herbicidal Activity: Abutilon (Abutilon [7]; Table B5, 60 g/ha) | Pre-emergent Herbicidal Activity: Echinochloa (Echinochloa; Table B5, 30 g/ha) | Pre-emergence herbicidal action: Chenopodium (Chenopodium [10])
0: Pre-emergent Herbicidal Activity: Soja (Soya; 30 g/ha) | Pre-emergent Herbicidal Activity: Mais (Corn; 30 g/ha)
